Data reported in US20110117166A1, “IMPLANTABLE BONE GRAFT MATERIALS” (AFFINERGY, INC., priority 2009, published 2011).
Ends that are not written are not given here.

How the values were obtained:
[1] = target: T1, BMP-2 (Homo sapiens, UniProt P12643); experiment: ELISA of BMP-2 bound to biotinylated peptides immobilized on streptavidin plates; assay type: binding; settings: FIG. 14A; BMP-2 200 nM, 20 nM and 2 nM, 45 minutes
T1 sequence (P12643 283-396): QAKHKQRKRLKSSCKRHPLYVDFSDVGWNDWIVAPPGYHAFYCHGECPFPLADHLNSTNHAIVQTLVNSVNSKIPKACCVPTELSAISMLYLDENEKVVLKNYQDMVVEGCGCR
Method: BMP binding peptides SEQ ID NOs:1-4 & 8-10 were identified as described in US Patent Application Publication No. US20060051395A1. Briefly, the peptides were identified by phage display using immobilized BMP-2 as a substrate for the phage library selections. Synthetic peptides SEQ ID NOs: 1-2 were determined to bind to BMP-2 with a relative EC50 value of 0.8 nM and 0.9 nM, respectively (data not shown). Separately, the relative binding affinity of peptides SEQ ID NOs: 1-2 for BMP-2 is shown in FIG. 14A (SEQ ID NO: 1 is denoted as P9 and SEQ ID NO: 2 is denoted as P10). Briefly, the results shown in FIG. 14A were generated by immobilizing biotinylated BMP binding peptides SEQ ID NOs:1 & 2 on streptavidin coated plates. Serial dilutions of 200 nM, 20 nM and 2 nM of BMP-2 were incubated with the immobilized BMP binding peptides for 45 minutes, washed, and bound BMP quantified using ELISA.

[2] = target: T2, BMP-7 (Homo sapiens, UniProt P18075); experiment: ELISA of BMP-7 bound to immobilized BMP binding peptides; settings: FIG. 14B
T2 sequence (P18075 293-431): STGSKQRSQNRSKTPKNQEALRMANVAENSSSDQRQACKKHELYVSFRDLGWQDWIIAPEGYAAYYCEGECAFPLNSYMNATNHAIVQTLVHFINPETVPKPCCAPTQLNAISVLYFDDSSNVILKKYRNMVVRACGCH

[3] = system: C2C12 cells; experiment: Alkaline phosphatase secretion by C2C12 cells in response to BMP-2 with BMP binding peptide in solution; assay type: cell-based; settings: peptide 0-3500 nM, 3 days, FIG. 16
Method: In an experiment to test the biological activity of BMP-2 delivered by BMP binding peptide, alkaline phosphatase secreted by C2C12 cells in response to BMP-2 was measured in the presence and absence of BMP binding peptide in solution. C2C12 cells were incubated with BMP-2 (35 nM) and BMP binding peptide at a concentration ranging from 0-3500 nM. The C2C12 cells were incubated with the BMP-2 and BMP binding peptide for 3 days and the alkaline phosphatase assay was performed as described herein above.

[4] = system: rat calvarial defect; experiment: Rat calvarial defect model of bone healing (μCT and histology); assay type: in vivo; settings: conclusion from saline-hydrated groups
Method: The ability of each of the bone void filler collagen/TCP composites (unmodified and BMP binding peptide modified at 5-15 μmol peptide/g collagen described in Example 5) to speed bone healing was assessed in a rat calvarial defect model. A defect was introduced into male Sprague Dawley rats (n=8) as described previously (Poehling, et. al, J Periodontol, 2006, 77:1582-90). A full thickness circular defect, 6.8 mm in diameter, was made in the parietal bone, centered across the midline. The disc of bone was removed, and the void was filled with bone graft substitute material hydrated with or without BMA harvested from the tibia (saline was used for hydration without BMA). […] The calvaria were removed and analyzed by micro-computed tomography (μCT) to provide measurements of bone density (SCANCO MEDICAL; Wayne, Pa.). […] For each sample, 6 sections evenly distributed across the defect were scored by two independent observers, blind to the treatment groups. The slides were scored for osteogenic cellular activity, new bone area, and new bone maturity according to the following procedure. For osteogenic cellular activity, fibroblasts/loose connective tissue, immature cartilage progenitors, immature bone progenitors, giant cells, osteoclasts, osteoblasts, and osteocytes were counted and scored according to the following scale: 1=Rare; 2=Few; 3=Moderate; and 4=Dense. […]

relative affinity for BMP-2 [1]	relative affinity for BMP-7 [2]	Substance	effect on BMP-2 biological activity (alkaline phosphatase secretion) ([3]; BMP-2 35 nM)	BMP-2 activity of the peptide on its own (alkaline phosphatase secretion) [3]	bioactivity of the peptide itself in bone formation [4]
high relative affinity	high relative affinity	GGALGFPLKGEVVEGWA-NH2 (C-terminus assumed) [SEQ ID NO: 2]	does not interfere with the biological activity of BMP-2	does not have BMP-2 activity on its own	does not possess bioactivity itself
high relative affinity	high relative affinity	GGGAWEAFSSLSGSRV-NH2 (C-terminus assumed) [SEQ ID NO: 1]			
